Reference: BindingDB's records for doi:10.1074/jbc.M112.419069 (John Innes Centre, 2013)

Each molecule was assayed against DNA gyrase subunit A (Mycobacterium tuberculosis (strain ATCC 25618 / H37Rv), UniProt P9WG47) (assay: Enzyme Assay).
Chain of DNA gyrase subunit A (P9WG47 whole entry): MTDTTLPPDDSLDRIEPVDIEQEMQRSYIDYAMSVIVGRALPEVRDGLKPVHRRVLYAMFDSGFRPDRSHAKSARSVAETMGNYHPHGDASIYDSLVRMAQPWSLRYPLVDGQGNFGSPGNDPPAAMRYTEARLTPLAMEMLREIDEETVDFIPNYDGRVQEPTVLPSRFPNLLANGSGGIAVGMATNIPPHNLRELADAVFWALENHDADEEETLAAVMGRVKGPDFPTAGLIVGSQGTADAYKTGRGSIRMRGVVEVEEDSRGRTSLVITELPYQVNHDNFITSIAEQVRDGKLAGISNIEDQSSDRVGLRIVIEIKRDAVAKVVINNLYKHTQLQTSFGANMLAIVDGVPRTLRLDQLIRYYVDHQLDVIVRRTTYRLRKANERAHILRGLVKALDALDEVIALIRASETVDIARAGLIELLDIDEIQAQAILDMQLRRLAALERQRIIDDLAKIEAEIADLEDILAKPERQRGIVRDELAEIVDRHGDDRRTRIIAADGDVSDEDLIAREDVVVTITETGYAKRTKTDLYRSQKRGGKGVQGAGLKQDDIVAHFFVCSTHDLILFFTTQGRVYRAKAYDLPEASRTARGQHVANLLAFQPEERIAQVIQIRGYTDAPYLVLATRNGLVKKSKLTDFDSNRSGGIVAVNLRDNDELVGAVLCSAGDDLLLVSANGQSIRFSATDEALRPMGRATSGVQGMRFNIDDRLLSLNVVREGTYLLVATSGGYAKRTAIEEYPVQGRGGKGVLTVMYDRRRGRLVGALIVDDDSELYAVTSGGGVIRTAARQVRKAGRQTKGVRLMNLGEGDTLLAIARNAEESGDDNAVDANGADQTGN
Experimental: Mycobacterium tuberculosis gyrase supercoiling, relaxation, and decatenation assays were carried out as described previously.
With Cc1cc(O)c2c(c1)C(=O)C(c1c(C)cc3c(c1O)C(=O)C=CC3=O)=CC2=O [Diospyrin] the IC50 was 15 µM.
Work on Cc1cc(O)c2c(c1)C(=O)C=C(c1c(C)cc(O)c3c1C(=O)C=CC3=O)C2=O [Neodiospyrin] yielded an IC50 of 50 µM.
With Cc1cc(O)c2c(c1)C(=O)C=CC2=O [5-Hydroxy-7-methyl-[1,4]naphthoquinone] the IC50 was 30 µM.
With CC1=CC(=O)c2ccccc2C1=O [Vitamin K3] the IC50 was greater than 200 µM.
Cc1cc2c(c(O)c1-c1c(C)cc(O)c3c1C(=O)C=CC3=O)C(=O)C=CC2=O [Isodiospyrin] was tested, and the IC50 was 100 µM.
